From patent US20040087653A1, “Methods for the treatment of respiratory diseases and conditions with a selective iNOS inhibitor and a PDE inhibitor and compositions therefor” (priority 2002, published 2004)
Structures can show the parent of a compound that is named as a salt. Where two headings read alike, the source gives them in different places.

Experiments:
[1] = test system: nitrite production in human cartilage explants; experiment: Human cartilage explant assay (IL-1 induced nitrite production); type: cell-based; settings: inhibition of nitrite production, IL-1 stimulated explants
Procedure: Bone pieces are rinsed twice with Dulbecco's Phosphate Buffered Saline (GibcoBRL) and once with Dulbecco's Modified Eagles Medium (GibcoBRL) and placed into a petri dish with phenol red free Minimum Essential Medium (MEM) (GibcoBRL). Cartilage was cut into small explants of approximately 15-45 mg in weight and one or two explants per well are placed into either 96 or 48 well culture plates with 200-500 μL of culture media per well. The culture media was either a custom modification of Minimum Essential Medium(Eagle) with Earle's salts (GibcoBRL) prepared without L-Arginine, without L-Glutamine and without phenol red or a custom modification of serumless Neuman and Tytell (GibcoBRL) medium prepared without L-arginine, without insulin, without ascorbic acid, without L-glutamine and without phenol red. Both are supplemented before use with 100 μM L-Arginine (Sigma), 2 mM L-glutamine, 1× HL-1 supplement (BioWhittaker), […] ascorbic acid (Sigma) and 150 pg/ml recombinant human IL-1[…] (RD Systems) to induce nitric oxide synthase. Compounds are then added in 10 μL aliquots and the explants incubated at 37° C. with 5% CO2 for 18-24 hours. The day old supernatant is then discarded and replaced with fresh culture media containing recombinant human IL-1β and compound and incubated for another 20-24 hours. […] All samples are done in quadruplicate. Unstimulated controls are cultured in media in the absence of recombinant human IL-1 □. IC50 values (Table II) are determined from plotting the percent inhibition of nitrite production at six different concentrations of inhibitor.

i-NOS = i-NOS (Homo sapiens, UniProt P35228); experiment: i-NOS inhibition, comparison with NIL amides
[2] = test system: LPS-induced increase in plasma nitrite/nitrate levels; experiment: In vivo assay: plasma nitrite/nitrate in endotoxin-treated rats; settings: oral administration, plasma nitrite/nitrate 5 hours post-treatment
Procedure: Plasma nitrite/nitrate levels can be determined 5 hours post-treatment.

PDE IV [3] = test system: T1, PDE IV; settings: Hatzelmann et al. 2001; cited from earlier work
T1 construct: other: Hatzelmann et al. 2001

PDE I = settings: Hatzelmann et al. 2001; cited from earlier work
PDE V = PDE V (Homo sapiens, UniProt O76074); settings: printed only as numerator of 8/0.0008; cited from earlier work
PDE IV [4] = experiment: PDE IV inhibition (Hatzelmann et al.)
Procedure: PDE inhibition is then determined by the presence or absence of substrate degradation products. […] The relative ability of an inhibitory compound to slow or prevent the degradation of tritiated cyclic nucleotides is one test that is indicative of how well the compound in question selects one or more of each isoform to inhibit.
In practice, the in vitro selectivity of a PDE IV inhibitor may vary depending upon the condition under which the test is performed and on the inhibitors being tested. However, for the purposes of this specification, the selectivity of a PDE IV inhibitor can be measured as a ratio of the in vitro IC50 value for inhibition of any other isoform of the phosphodiesterase enzyme (Z) other than PDE IV, divided by the IC50 value for inhibition of PDE IV (PDE Z IC50/PDE IV IC50), where Z identifies any PDE other than PDE IV.

exhaled NO = settings: high doses; cited from earlier work
[5] = test system: human primary airway epithelial cells; experiment: Nitrite in media of cytokine-stimulated human primary airway epithelial cells; type: cell-based; settings: cells cultured 24 h with 50 ng/ml IL-1β, TNF-α and IFN-γ; read-out: IC50, inhibition of the increase in nitrite in the media
Procedure: Human primary airway epithelial cell cultures: Human primary airway epithelial cells were cultured as described previously (see Donnelly,L. E. and Barnes,P. J. Am J Respir Cell Mol.Biol 24:295-303 (2000)), and the amount of nitrite, the stable oxidation product of NO, in the cell culture media was measured using a modification of the spectrofluorometric method of Misko et al., Anal. Biochem. 4:11-16 (1993).
The protein was evenly distributed throughout the cytoplasm in basal cells but clearly located beneath the cilia in the columnar, ciliated cells. Treatment of airway epithelial cells with 50 ng/ml of IL-1β, TNF-α and IFN-γ (cytomix) for 24 h caused an induction of iNOS protein and an increase in the accumulation of nitrite in cell culture media from 2.20±0.2 μM in the absence of cytomix, to 3.5±0.4 μM in the presence of cytomix.
Media was harvested and measured for nitrite content (FIG. 1). Cellular proteins were resolved on 3-8% tris-acetate polyacrylamide gels and immunoblotted for iNOS protein (FIG. 2).

[6] = test system: iNOS protein expression in human primary airway epithelial cells; experiment: Western blotting of iNOS from cultured epithelial cells; type: cell-based; settings: cytokine-stimulated cells, various concentrations
Procedure: Western blotting of iNOS from cultured epithelial cells: Following incubation with the cytokine mixture alone or with various concentrations of L-NIL, epithelial cells were lysed in 50 mM Tris/HCl, pH 7.4, containing 0.25 mM ethylene diaminotetraacetic acid, 0.5 mM phenylmethylsulfonyl fluoride, 5 μg/ml antipain, 5 μg/ml leupeptin and 5 μg/ml benzaminidine. The protein concentration was determined using the BioRad protein assay kit according to the manufacturer's instructions. Cell proteins were solubilized in sodium dodecyl sulfate polyacrylamide gel electrophoresis sample buffer ([…] Tris/HCl, pH 6.8, containing 10% v/v glycerol, 1% w/v SDS, 1% w/v β-mercaptoethanol, and 0.01% w/v bromophenol blue). The proteins (15 μg per lane) were resolved by electrophoresis in 3-8% (w/v) Tris-acetate SDS-polyacrylamide gels and transferred to Hybond-Enhanced Chemi-luminescence (ECL) nitro-cellulose membranes. Equal protein loading was determined by staining the blot with 0.1% (w/v) Ponceau S in 5% (v/v) acetic acid. The nitro-cellulose was then blocked overnight at 4° C. in 0.5M Tris-HCl,pH 7.4, containing 3% (w/v) normal goat serum, 1% (w/v) bovine serum albumin and 0.05% (v/v) Tween-20. […]
Media was harvested and measured for nitrite content (FIG. 1). […]

[7] = Rattus norvegicus, read-out: ED50

Sequence of i-NOS (P35228 whole entry): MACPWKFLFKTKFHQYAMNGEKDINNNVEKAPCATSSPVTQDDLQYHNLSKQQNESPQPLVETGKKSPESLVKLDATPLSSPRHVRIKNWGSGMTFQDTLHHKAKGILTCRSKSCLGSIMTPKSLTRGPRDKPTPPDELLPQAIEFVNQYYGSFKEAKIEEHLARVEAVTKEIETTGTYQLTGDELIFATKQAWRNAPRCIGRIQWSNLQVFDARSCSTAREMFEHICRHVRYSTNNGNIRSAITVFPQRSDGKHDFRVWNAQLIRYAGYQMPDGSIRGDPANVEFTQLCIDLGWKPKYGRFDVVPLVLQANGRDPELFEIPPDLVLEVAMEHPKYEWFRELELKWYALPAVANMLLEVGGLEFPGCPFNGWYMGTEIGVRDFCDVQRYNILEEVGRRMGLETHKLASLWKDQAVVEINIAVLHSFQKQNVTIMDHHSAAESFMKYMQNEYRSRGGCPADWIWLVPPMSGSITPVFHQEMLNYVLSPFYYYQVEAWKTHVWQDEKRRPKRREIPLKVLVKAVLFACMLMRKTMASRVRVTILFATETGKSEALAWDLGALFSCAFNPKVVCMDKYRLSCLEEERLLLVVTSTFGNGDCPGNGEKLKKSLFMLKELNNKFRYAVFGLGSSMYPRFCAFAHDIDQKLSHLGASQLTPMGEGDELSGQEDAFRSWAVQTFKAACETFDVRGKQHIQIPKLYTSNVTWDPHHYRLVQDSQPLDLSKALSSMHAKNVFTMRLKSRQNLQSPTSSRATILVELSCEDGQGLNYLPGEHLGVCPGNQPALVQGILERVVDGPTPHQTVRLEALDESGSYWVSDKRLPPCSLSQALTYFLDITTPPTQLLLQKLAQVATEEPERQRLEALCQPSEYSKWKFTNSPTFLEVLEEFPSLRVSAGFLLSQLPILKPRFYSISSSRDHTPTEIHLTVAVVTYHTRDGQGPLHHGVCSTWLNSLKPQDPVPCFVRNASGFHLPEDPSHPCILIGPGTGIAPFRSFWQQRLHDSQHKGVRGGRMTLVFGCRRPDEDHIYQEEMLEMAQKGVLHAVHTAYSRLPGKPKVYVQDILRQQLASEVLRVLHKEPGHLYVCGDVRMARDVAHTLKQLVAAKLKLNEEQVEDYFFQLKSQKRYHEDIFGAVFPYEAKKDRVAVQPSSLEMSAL

Row | Structure (SMILES) | IC50 ([1]; Homo sapiens) | ED50 [2, 7] | other results
1 | CC(=N)NCC(F)=CCC[C@H](N)C(=O)O (mixture of isomers) [Example B, (2S,5E/Z)-2-amino-6-fluoro-7-[(1-iminoethyl)amino]-5-heptenoic acid, dihydrochloride] | 200 nM |  | 
2 | CC(=N)NCCCC[C@H](N)C(=O)Nc1nnn[nH]1 [Example 1, 2S-amino-6-[(1-iminoethyl)amino]-N-(1H-tetrazol-5-yl)hexanamide, hydrate, dihydrochloride] |  |  | selectivity compared with NIL amide or NIL dimethylamide (i-NOS): more selective
3 | CC(=N)NC/C(F)=C\CC[C@H](N)C(=O)Nc1nnn[nH]1 [Example H, (2S,5E)-2-amino-6-fluoro-7-[(1-iminoethyl)amino]-N-(1H-tetrazol-5-yl) 5-heptenamide, dihydrochloride] |  | < 0.3 mg/kg | 
4 | N=C1CCCC[C@H](CCCC[C@H](N)C(=O)O)N1 [Example X, (αS,2S)-α-aminohexahydro-7-imino-1H-azepine-2-hexanoic acid, trihydrate hydrochloride] |  |  | IC50 [1]: < 10000 nM
5 | O=C(Nc1c(Cl)cncc1Cl)c1ccc(OC(F)F)c(OCC2CC2)c1 [roflumilast] |  |  | IC50 (PDE IV [3]): 0.8 nM; IC50 (PDE I): > 10000 nM; IC50 (PDE V): 8000 nM; selectivity for PDE IV as compared with PDE I (PDE IV [4]; PDE I IC50/PDE IV IC50): at least 12,500; selectivity for PDE IV as compared with PDE V (PDE IV [4]; PDE V IC50/PDE IV IC50): at least 10,000
6 | N=C(N)NN [amino-guanidine] |  |  | inhibition of exhaled NO (exhaled NO): approximately 70%
7 | CC(=N)NCCCC[C@H](N)C(=O)O [L-NIL] |  |  | IC50 [5]: ~5700 nM; effect on iNOS expression as detected by immunoblotting [6]: did not affect iNOS expression
8 | COC[C@](N)(CSCCNC(C)=N)C(=O)O [Example J, 2-[[[2-[(1-Iminoethyl)amino]ethyl]thio]methyl]-O-methyl-D-serine, dihydrochloride] |  |  | IC50 [1]: 8200 nM
9 | N=C1CCCC[C@H](CCCC[C@H](N)C(=O)O)N1 [Example Z, (αS,2S)-α-aminohexahydro-7-imino-1H-azepine-2-hexanoic acid, trihydrate hydrochloride] | < 10000 nM |  | 
10 | N=C1CCCC[C@H](CCCC[C@@H](N)C(=O)O)N1 [Example V, (α,2S)-.α-aminohexahydro-7-imino-1H-azepine-2-hexanoic acid, trihydrate hydrochloride] | < 10000 nM | < 3 mg/kg | 
11 | CC(=N)NC/C=C\CC[C@](C)(N)C(=O)O.Cl.Cl [Example LL, (2S,5Z)-2-amino-2-methyl-7-[(1-iminoethyl)amino]-5-heptenoic acid, dihydrochloride] | 800 nM | 0.3 mg/kg | 
12 | COC(=O)[C@@H](N)CCCNC(=N)N[N+](=O)[O-] [L-NAME] |  |  | inhibition of exhaled NO (exhaled NO): approximately 70%
13 | Cl.N=C1CCCC[C@H](CCCC[C@@H](N)C(=O)O)N1.O.O.O [Example Y, (αR,2S)-α-aminohexahydro-7-imino-1H-azepine-2-hexanoic acid, trihydrate hydrochloride] |  | < 3 mg/kg | 
14 | CC(=NO)NC/C(F)=C\CC[C@H](N)C(=O)O [Example G, (2S,5E)-2-amino-6-fluoro-7-[(1-hydroximinoethyl)amino]-5-heptenoic acid] |  | < 0.1 mg/kg | melting point: 198 to 200 °C
15 | CC(=N)NC/C(F)=C/CC[C@H](N)C(=O)O [Example D, (2S,5Z)-2-amino-6-fluoro-7-[(1-iminoethyl)amino]-5-heptenoic acid, trihydrochloride, dihydrate] | 2500 nM | > 10 mg/kg | 
16 | CC(=N)NC/C(F)=C\CC[C@H](N)C(=O)O [Example A, (2S,5E)-2-amino-6-fluoro-7-[(1-iminoethyl)amino]-5-heptenoic acid, dihydrochloride] | 100 nM | < 0.1 mg/kg | ED50 ([2]; dihydrochloride): <0.1 mg/kg
17 | CC(=N)NC/C(F)=C\CC[C@](C)(N)C(=O)O.Cl.Cl [Example HH, (2S,5E)-2-amino-2-methyl-6-fluoro-7-[(1-iminoethyl)amino]-5-heptenoic acid, dihydrochloride] | 400 nM | 0.4 mg/kg | 
18 | N=C1CCCC[C@@H](CCCC[C@H](N)C(=O)O)N1 [Example W, (αS,2R)-α-aminohexahydro-7-imino-1H-azepine-2-hexanoic acid, trihydrate hydrochloride] | > 30000 nM |  | 
